Measurements reported in patent publication US20210040089A1, “KRAS MUTANT PROTEIN INHIBITORS” (Jacobio Pharmaceuticals Co., Ltd., priority 2019, published 2021).

How the values were obtained:
[1] = test system: NCI-H358 cells express KRAS G12C; experiment: Cell growth inhibition assay (CCK-8); format: cell-based; details: Homo sapiens, 144 h; NCI-H358, 6 days incubation
Procedure, shortened: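 Antiproliferative read-out: KRAS G12C-mutant NCI-H358 lung cancer cells (3000/well) exposed to compounds in RPMI 1640 with 10% FBS for 6 days at 37°C. Viability by CCK-8 (OD450) after 1.5-2 h; IC50 from 4-parameter logistic fit.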

[2] = test system: Phospho-ERK1/2(THR202/TYR204) in NCI-H358 cells express KRAS G12C; experiment: Phospho-ERK1/2(THR202/TYR204) HTRF assay; format: cell-based; details: Homo sapiens; NCI-H358, 2 hours incubation; read-out: p-ERK inhibition in NCI-H358 IC50
Procedure, shortened: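 Compounds applied to attached cells for 2 h at 37 °C in RPMI 1640 with 0.1% FBS. Lysate phospho-ERK1/2 detected by HTRF after 4 h antibody incubation at 25 °C; IC50 from 4-parameter logistic fit.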

[3] = target: T1, KRAS G12C (Homo sapiens, UniProt P01116, G12C); experiment: SOS1 catalyzed nucleotide exchange assay (TR-FRET); format: biochemical; details: GDP-loaded HIS-KRAS(G12C), 1 hour pre-incubation with compound
T1 construct: HIS-KRAS (G12C, aa 2-185, Sino biological); purchased Sino biological
Procedure, shortened: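 EDTA-stripped, GDP-loaded His-KRAS G12C (aa 2-185; 3 nM final) preincubated 1 h with compound, then SOS1 ExD (aa 564-1049; 2 μM) and BODIPY-FL GTP (80 nM) added for 4 h at 25 °C. TR-FRET via anti-His Tb cryptate (515/486 nm ratio); IC50 from 4-parameter logistic fit.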

T1 sequence (P01116 2-185 isoform P01116-2 G12C): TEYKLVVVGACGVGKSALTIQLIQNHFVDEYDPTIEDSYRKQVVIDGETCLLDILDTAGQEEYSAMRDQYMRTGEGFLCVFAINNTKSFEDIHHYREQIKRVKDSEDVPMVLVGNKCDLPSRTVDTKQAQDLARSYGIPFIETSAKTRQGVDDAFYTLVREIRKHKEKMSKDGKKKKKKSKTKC

Structure (SMILES) | IC50 [1] | IC50 [2] | IC50 [3]
C=CC(=O)N1CCN(c2nc(OC3CCCC(N(C)C)C3)nc3c2CCN(c2cccc4ccccc24)C3)CC1CC#N (stereo not drawn) [Compound 10, 2-(1-acryloyl-4-(2-((3-(dimethylamino)cyclohexyl)oxy)-7-(naphthalen-1-yl)-5,6,7,8-tetrahydropyrido[3,4-d]pyrimidin-4-yl)piperazin-2-yl)acetonitrile] | 0.94 µM | 0.72 µM | 1.74 µM
C=C(F)C(=O)N1CCN(c2nc(OCC3(CN4CCCC4)CC3)nc3c2CCN(c2cccc4cccc(C)c24)C3)CC1CC#N (stereo not drawn) [Compound 72, 2-(1-(2-fluoroacryloyl)-4-(7-(8-methylnaphthalen-1-yl)-2-((1-(pyrrolidin-1-ylmethyl)cyclopropyl)methoxy)-5,6,7,8-tetrahydropyrido[3,4-d]pyrimidin-4-yl)piperazin-2-yl)acetonitrile] | 0.379 µM | 0.215 µM | 0.0118 µM
C=CC(=O)N1CCN(c2nc(OCC3(CN4CCCC4)CC3)nc3c2CCN(c2cccc(Cl)c2Cl)C3)CC1CC#N (stereo not drawn) [Compound 35, 2-(1-acryloyl-4-(7-(2,3-dichlorophenyl)-2-((1-(pyrrolidin-1-ylmethyl)cyclopropyl)methoxy)-5,6,7,8-tetrahydropyrido[3,4-d]pyrimidin-4-yl)piperazin-2-yl)acetonitrile] | 0.106 µM | 0.0853 µM | 0.0179 µM
C=C(F)C(=O)N1CCN(c2nc(OCC3(CN(C)C)CC3)nc3c2CCN(c2cccc4cccc(C)c24)C3)CC1CC#N (stereo not drawn) [Compound 78, 2-(4-(2-((1-((dimethylamino)methyl)cyclopropyl)methoxy)-7-(8-methylnaphthalen-1-yl)-5,6,7,8-tetrahydropyrido[3,4-d]pyrimidin-4-yl)-1-(2-fluoroacryloyl)piperazin-2-yl)acetonitrile] | 0.208 µM | 0.208 µM | 0.00836 µM
C=CC(=O)N1CCN(c2nc(OCC3(N(C)C)CC3)nc3c2CCN(c2cccc4ccccc24)C3)CC1CC#N (stereo not drawn) [Compound 12, 2-(1-acryloyl-4-(2-((1-(dimethylamino)cyclopropyl)methoxy)-7-(naphthalen-1-yl)-5,6,7,8-tetrahydropyrido[3,4-d]pyrimidin-4-yl)piperazin-2-yl)acetonitrile] | 0.645 µM | 0.518 µM | 0.176 µM
C=CC(=O)N1CCN(c2nc(OCC3(CN4CCCC4)CCC3)nc3c2CCN(c2cccc4ccccc24)C3)CC1CC#N (stereo not drawn) [Compound 44, 2-(1-acryloyl-4-(7-(naphthalen-1-yl)-2-((1-(pyrrolidin-1-ylmethyl)cyclobutyl)methoxy)-5,6,7,8-tetrahydropyrido[3,4-d]pyrimidin-4-yl)piperazin-2-yl)acetonitrile] | 0.742 µM | 0.22 µM | 0.0332 µM
C=CC(=O)N1CCN(c2nc(OCC3CCCC(N(C)C)C3)nc3c2CCN(c2cccc4ccccc24)C3)CC1CC#N (stereo not drawn) [Compound 15, 2-(1-acryloyl-4-(2-((3-(dimethylamino)cyclohexyl)methoxy)-7-(naphthalen-1-yl)-5,6,7,8-tetrahydropyrido[3,4-d]pyrimidin-4-yl)piperazin-2-yl)acetonitrile] | 0.497 µM | 0.877 µM | 0.333 µM
C=CC(=O)N1CCN(c2nc(OCC3CCCC(N(C)C)C3)nc3c2CCN(c2ccccc2C(F)(F)F)C3)CC1CC#N (stereo not drawn) [Compound 6, 2-(1-acryloyl-4-(2-((3-(dimethylamino)cyclohexyl)methoxy)-7-(2-(trifluoromethyl)phenyl)-5,6,7,8-tetrahydropyrido[3,4-d]pyrimidin-4-yl)piperazin-2-yl)acetonitrile] | 0.58 µM | 0.592 µM | 0.178 µM
C=CC(=O)N1CCN(c2nc(OCC3(CN(C)C)CC3)nc3c2CCN(c2cccc(C)c2C)C3)CC1CC#N (stereo not drawn) [Compound 48, 2-(1-acryloyl-4-(2-((1-((dimethylamino)methyl)cyclopropyl)methoxy)-7-(2,3-dimethylphenyl)-5,6,7,8-tetrahydropyrido[3,4-d]pyrimidin-4-yl)piperazin-2-yl)acetonitrile] | 0.0949 µM | 0.066 µM | 0.00331 µM
C=CC(=O)N1CCN(c2nc(OCC3(CN(C)C)CC3)nc3c2CCN(c2cccc4cccc(C)c24)C3)CC1CC#N (stereo not drawn) [Compound 47, 2-(1-acryloyl-4-(2-((1-((dimethylamino)methyl)cyclopropyl)methoxy)-7-(8-methylnaphthalen-1-yl)-5,6,7,8-tetrahydropyrido[3,4-d]pyrimidin-4-yl)piperazin-2-yl)acetonitrile] | 0.0264 µM | 0.0237 µM | 0.00116 µM
C=CC(=O)N1CCN(c2nc(OCC3(CN(C)C)CC3)nc3c2CCN(c2cccc4ncsc24)C3)CC1CC#N (stereo not drawn) [Compound 54, 2-(1-acryloyl-4-(7-(benzo[d]thiazol-7-yl)-2-((1-((dimethylamino)methyl)cyclopropyl)methoxy)-5,6,7,8-tetrahydropyrido[3,4-d]pyrimidin-4-yl)piperazin-2-yl)acetonitrile] | > 1 µM | > 0.5 µM | 0.0828 µM
C=CC(=O)N1CCN(c2nc(OCC3(CN4CC[C@H](N(C)C)C4)CC3)nc3c2CCN(c2cccc4cccc(C)c24)C3)CC1CC#N (stereo partly drawn) [Compound 65, 2-(1-acryloyl-4-(2-((1-(((S)-3-(dimethylamino)pyrrolidin-1-yl)methyl)cyclopropyl)methoxy)-7-(8-methylnaphthalen-1-yl)-5,6,7,8-tetrahydropyrido[3,4-d]pyrimidin-4-yl)piperazin-2-yl)acetonitrile] | 0.0328 µM | 0.0878 µM | 0.00146 µM
Cc1cccc2cccc(N3CCc4c(nc(OCC5(CN(C)C)CC5)nc4N4CCN(C(=O)/C=C/CF)C(CC#N)C4)C3)c12 (stereo not drawn) [Compound 77, (E)-2-(4-(2-((1-((dimethylamino)methyl)cyclopropyl)methoxy)-7-(8-methylnaphthalen-1-yl)-5,6,7,8-tetrahydropyrido[3,4-d]pyrimidin-4-yl)-1-(4-fluorobut-2-enoyl)piperazin-2-yl)acetonitrile] | 0.029 µM | 0.0593 µM | 0.00124 µM
Cc1cccc2cccc(N3CCc4c(nc(OCC5(CN(C)C)CC5)nc4N4CCN(C(=O)/C=C/CN(C)C)C(CC#N)C4)C3)c12 (stereo not drawn) [Compound 85, (E)-2-(1-(4-(dimethylamino)but-2-enoyl)-4-(2-((1-((dimethylamino)methyl)cyclopropyl)methoxy)-7-(8-methylnaphthalen-1-yl)-5,6,7,8-tetrahydropyrido[3,4-d]pyrimidin-4-yl)piperazin-2-yl)acetonitrile] | 0.132 µM | 0.153 µM | 0.00286 µM
C=C(F)C(=O)N1CCN(c2nc(OCC3(CN(C)C)CC3)nc3c2CCN(c2cccc4cccc(Cl)c24)C3)CC1CC#N (stereo not drawn) [Compound 79, 2-(4-(7-(8-chloronaphthalen-1-yl)-2-((1-((dimethylamino)methyl)cyclopropyl)methoxy)-5,6,7,8-tetrahydropyrido[3,4-d]pyrimidin-4-yl)-1-(2-fluoroacryloyl)piperazin-2-yl)acetonitrile] | 0.239 µM | 0.439 µM | 0.00603 µM
C=CC(=O)N1CCN(c2nc(OCC3(CN4CCCC4)CCC3)nc3c2CCN(c2cccc4cccc(C)c24)C3)CC1CC#N (stereo not drawn) [Compound 45, 2-(1-acryloyl-4-(7-(8-methylnaphthalen-1-yl)-2-((1-(pyrrolidin-1-ylmethyl)cyclobutyl)methoxy)-5,6,7,8-tetrahydropyrido[3,4-d]pyrimidin-4-yl)piperazin-2-yl)acetonitrile] | 0.59 µM | 0.216 µM | 0.0133 µM
C=CC(=O)N1CCN(c2nc(OCC3(CN4CCC4)CC3)nc3c2CCN(c2cccc4cccc(C)c24)C3)CC1CC#N (stereo not drawn) [Compound 43, 2-(1-acryloyl-4-(2-((1-(azetidin-1-ylmethyl)cyclopropyl)methoxy)-7-(8-methylnaphthalen-1-yl)-5,6,7,8-tetrahydropyrido[3,4-d]pyrimidin-4-yl)piperazin-2-yl)acetonitrile] | 0.135 µM | 0.0718 µM | 0.00505 µM
C=CC(=O)N1CCN(c2nc(OCC3(CN(C)C)CC3)nc3c2CCN(c2cccc4sccc24)C3)CC1CC#N (stereo not drawn) [Compound 51, 2-(1-acryloyl-4-(7-(benzo[b]thiophen-4-yl)-2-((1-((dimethylamino)methyl)cyclopropyl)methoxy)-5,6,7,8-tetrahydropyrido[3,4-d]pyrimidin-4-yl)piperazin-2-yl)acetonitrile] | 0.0999 µM | 0.0771 µM | 0.00328 µM
C=CC(=O)N1CCN(c2nc(OCC3(CN(C)CCN(C)C)CC3)nc3c2CCN(c2cccc4cccc(C)c24)C3)CC1CC#N (stereo not drawn) [Compound 64, 2-(1-acryloyl-4-(2-((1-(((2-(dimethylamino)ethyl)(methyl)amino)methyl)cyclopropyl)methoxy)-7-(8-methylnaphthalen-1-yl)-5,6,7,8-tetrahydropyrido[3,4-d]pyrimidin-4-yl)piperazin-2-yl)acetonitrile] | 0.0745 µM | 0.124 µM | 0.00169 µM
